Results from patent publication US20230113037A1 (Bayer Aktiengesellschaft, priority 2019, published 2023).

Legend:
AHR [1] = target: T1, AHR (Homo sapiens, UniProt P35869); test: In vitro assay 1: antagonism in human cell line (AHR transactivation, firefly luciferase reporter, kynurenic acid prestimulated); assay type: cell-based; details: AHR Antagonism Human IC50 [M]
T1 construct: U87 MG glioblastoma cells (ATCC #HTB-14) endogenously expressing AHR; endogenous in cells; host or cells: U87 MG glioblastoma cells (ATCC #HTB-14)
T1 sequence (P35869 11-848): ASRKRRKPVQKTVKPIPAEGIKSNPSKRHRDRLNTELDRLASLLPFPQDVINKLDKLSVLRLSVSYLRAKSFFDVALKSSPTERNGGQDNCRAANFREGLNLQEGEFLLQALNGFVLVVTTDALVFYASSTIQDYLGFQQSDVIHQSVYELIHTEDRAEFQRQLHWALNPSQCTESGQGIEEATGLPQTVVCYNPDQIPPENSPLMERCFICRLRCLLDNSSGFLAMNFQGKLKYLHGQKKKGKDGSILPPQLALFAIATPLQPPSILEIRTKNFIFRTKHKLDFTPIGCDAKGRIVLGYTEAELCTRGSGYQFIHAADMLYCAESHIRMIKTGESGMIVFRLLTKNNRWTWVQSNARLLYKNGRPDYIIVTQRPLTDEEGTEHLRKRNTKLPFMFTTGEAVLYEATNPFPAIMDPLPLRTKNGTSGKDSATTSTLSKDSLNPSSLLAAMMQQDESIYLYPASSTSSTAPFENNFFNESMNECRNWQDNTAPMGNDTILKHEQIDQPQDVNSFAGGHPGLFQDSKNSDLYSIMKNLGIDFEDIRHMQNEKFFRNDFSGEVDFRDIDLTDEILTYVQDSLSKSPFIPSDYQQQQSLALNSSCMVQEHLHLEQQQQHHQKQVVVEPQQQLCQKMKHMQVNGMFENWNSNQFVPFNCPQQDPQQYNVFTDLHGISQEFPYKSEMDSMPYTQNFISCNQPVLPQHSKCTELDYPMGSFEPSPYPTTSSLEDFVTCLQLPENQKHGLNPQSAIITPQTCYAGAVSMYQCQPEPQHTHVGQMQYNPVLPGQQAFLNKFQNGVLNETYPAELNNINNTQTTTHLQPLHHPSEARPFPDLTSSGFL
In short: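 Antagonism is measured against kynurenic acid prestimulation in U87 MG glioblastoma cells carrying stable DRE-luciferase and Renilla reporters. Positive inhibition control: 150 μM kynurenic acid with 5 μM staurosporine. Values are normalized to controls; repeats are averaged or given as medians.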

AHR [2] = target: T2, AHR (Mus musculus, UniProt P30561); test: In vitro assay 3: antagonism in mouse cell line (AHR transactivation, firefly luciferase reporter, kynurenic acid prestimulated); assay type: cell-based; details: mouse Hepa 1c1c7 cells, 200 μM kynurenic acid, 20 hours, read-out: AHR Antagonism Mouse IC50
T2 sequence (P30561 1-848 P471L/N533S/M589L): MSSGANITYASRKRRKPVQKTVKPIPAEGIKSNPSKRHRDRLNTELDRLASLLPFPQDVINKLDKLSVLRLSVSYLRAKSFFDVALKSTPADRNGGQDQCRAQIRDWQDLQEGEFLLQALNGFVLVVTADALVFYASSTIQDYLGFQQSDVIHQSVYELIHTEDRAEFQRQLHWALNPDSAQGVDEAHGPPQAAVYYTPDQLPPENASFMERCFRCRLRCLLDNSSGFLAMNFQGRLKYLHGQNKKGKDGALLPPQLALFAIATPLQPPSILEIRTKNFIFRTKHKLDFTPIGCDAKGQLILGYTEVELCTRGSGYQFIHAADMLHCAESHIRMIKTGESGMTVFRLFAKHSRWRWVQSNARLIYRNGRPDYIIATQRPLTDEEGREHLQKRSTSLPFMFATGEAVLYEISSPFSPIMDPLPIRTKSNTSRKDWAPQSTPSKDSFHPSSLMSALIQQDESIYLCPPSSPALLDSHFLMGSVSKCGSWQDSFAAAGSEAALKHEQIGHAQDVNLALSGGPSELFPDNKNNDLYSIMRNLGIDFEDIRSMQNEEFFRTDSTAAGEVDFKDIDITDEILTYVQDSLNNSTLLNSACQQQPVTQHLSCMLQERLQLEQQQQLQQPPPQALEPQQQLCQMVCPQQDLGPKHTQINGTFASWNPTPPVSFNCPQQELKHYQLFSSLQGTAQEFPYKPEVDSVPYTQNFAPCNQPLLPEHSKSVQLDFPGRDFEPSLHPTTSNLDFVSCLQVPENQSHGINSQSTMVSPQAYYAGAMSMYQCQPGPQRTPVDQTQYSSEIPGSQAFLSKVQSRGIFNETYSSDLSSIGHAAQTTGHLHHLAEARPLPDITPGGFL
In short: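 Luminescence from an AHR-dependent DRE-luciferase reporter, stably integrated in mouse cells, quantifies blockade of kynurenic acid-driven activation. Unstimulated cells mark maximal inhibition; normalization uses both control types, and multiply tested compounds carry mean or median values.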

SMILES	IC50 (AHR [1]) [M]	IC50 (AHR [2]) [nM]
Cc1nc(-c2nc3c4ccccc4nc(N[C@@H]4CCCCNC4=O)n3n2)co1 [Example 70, (3R)-3-{[2-(2-methyl-1,3-oxazol-4-yl)[1,2,4]triazolo[1,5-c]quinazolin-5-yl]amino}azepan-2-one]	2.44e-08	51.7
COc1cccc(-c2nc3c4ccccc4nc(N[C@@H]4CCCCNC4=O)n3n2)c1 [Example 75, (3R)-3-{[2-(3-methoxyphenyl)[1,2,4]triazolo[1,5-c]quinazolin-5-yl]amino}azepan-2-one]	2.57e-09	0.359
COc1cccc(-c2nc3c4ccccc4nc(N[C@H]4CCCCNC4=O)n3n2)c1 [Example 76, (3S)-3-{[2-(3-methoxyphenyl)[1,2,4]triazolo[1,5-c]quinazolin-5-yl]amino}azepan-2-one]	4.82e-08	4.57
COc1cccc(-c2nc3c4ccccc4nc(NC4CCCNC4=O)n3n2)c1 (stereo not shown) [Example 77, 3-{[2-(3-methoxyphenyl)[1,2,4]triazolo[1,5-c]quinazolin-5-yl]amino}piperidin-2-one]	6.52e-08	52.1
COc1cccc(-c2nc3c4ccccc4nc(N[C@H](CO)C(N)=O)n3n2)c1 [Example 79, N^2-[2-(3-methoxyphenyl)[1,2,4]triazolo[1,5-c]quinazolin-5-yl]-D-serinamide]	4.9e-08	52.2
COc1cccc(-c2nc3c4ccccc4nc(N[C@@H](C)C(N)=O)n3n2)c1 [Example 81]	4.02e-07	287
COc1cccc(-c2nc3c4ccccc4nc(N[C@H](CC(C)C)C(N)=O)n3n2)c1 [Example 82, N^2-[2-(3-methoxyphenyl)[1,2,4]triazolo[1,5-c]quinazolin-5-yl]-D-leucinamide]	8.87e-09	12.9
COc1cccc(-c2nc3c4ccccc4nc(N[C@H](C(N)=O)C(C)C)n3n2)c1 [Example 83, N^2-[2-(3-methoxyphenyl)[1,2,4]triazolo[1,5-c]quinazolin-5-yl]-L-valinamide]	6.99e-07	115
COc1cccc(-c2nc3c4ccccc4nc(N[C@@H](Cc4ccc(O)cc4)C(N)=O)n3n2)c1 [Example 84, N^2-[2-(3-methoxyphenyl)[1,2,4]triazolo[1,5-c]quinazolin-5-yl]-L-tyrosinamide]	1.01e-06	1380
COc1cccc(-c2nc3c4ccccc4nc(N[C@@H](CO)C(N)=O)n3n2)c1 [Example 85, N^2-[2-(3-methoxyphenyl)[1,2,4]triazolo[1,5-c]quinazolin-5-yl]-L-serinamide]	4.95e-07	229
COc1cccc(-c2nc3c4ccccc4nc(NC4(C(N)=O)COC4)n3n2)c1 [Example 87, 3-{[2-(3-methoxyphenyl)[1,2,4]triazolo[1,5-c]quinazolin-5-yl]amino}oxetane-3-carboxamide]	4.85e-07	282
CC[C@@H](Nc1nc2ccccc2c2nc(-c3cccc(OC)c3)nn12)C(N)=O [Example 88, (2R)-2-{[2-(3-methoxyphenyl)[1,2,4]triazolo[1,5-c]quinazolin-5-yl]amino}butanamide]	2.11e-09	0.437
COc1cccc(-c2nc3c4ccccc4nc(N[C@@H](C(N)=O)c4ccccc4)n3n2)c1 [Example 89, (2R)-2-{[2-(3-methoxyphenyl)[1,2,4]triazolo[1,5-c]quinazolin-5-yl]amino}-2-phenylacetamide]	1.29e-08	12.8
COc1cccc(-c2nc3c4ccccc4nc(N[C@H](Cc4ccccc4)C(N)=O)n3n2)c1 [Example 90, N^2-[2-(3-methoxyphenyl)[1,2,4]triazolo[1,5-c]quinazolin-5-yl]-D-phenylalaninamide]	4.54e-09	6.34
COc1cccc(-c2nc3c4ccccc4nc(N[C@H](CO)C(=O)O)n3n2)c1 [Example 91, N-[2-(3-methoxyphenyl)[1,2,4]triazolo[1,5-c]quinazolin-5-yl]-D-serine]	> 2e-05	> 20000
COc1cccc(-c2nc3c4ccccc4nc(N[C@H](C)C(N)=O)n3n2)c1 [Example 92, N^2-[2-(3-methoxyphenyl)[1,2,4]triazolo[1,5-c]quinazolin-5-yl]-D-alaninamide]	8.63e-09	4.38
COc1cccc(-c2nc3c4ccccc4nc(N[C@H](CC(C)C)C(=O)O)n3n2)c1 [Example 93, N-[2-(3-methoxyphenyl)[1,2,4]triazolo[1,5-c]quinazolin-5-yl]-D-leucine]	1.52e-07	427
COc1cccc(-c2nc3c4ccccc4nc(N[C@@H](C(N)=O)[C@H](C)OCc4ccccc4)n3n2)c1 [Example 97, O-benzyl-N^2-[2-(3-methoxyphenyl)[1,2,4]triazolo[1,5-c]quinazolin-5-yl]-D-threoninamide]	1.56e-07	84.1
COc1cccc(-c2nc3c4ccccc4nc(N[C@@H](CCCCNC(=O)OC(C)(C)C)C(N)=O)n3n2)c1 [Example 101, tert-butyl[(5S)-6-amino-5-{[2-(3-methoxyphenyl)[1,2,4]triazolo[1,5-c]quinazolin-5-yl]amino}-6-oxohexyl]carbamate]	3.48e-06	145
CNC(=O)[C@H](C)Nc1nc2ccccc2c2nc(-c3cccc(OC)c3)nn12 [Example 102, N^2-[2-(3-methoxyphenyl)[1,2,4]triazolo[1,5-c]quinazolin-5-yl]-N-methyl-L-alaninamide]	6.01e-07	246
COc1cccc(-c2nc3c4ccccc4nc(N[C@@H](C(N)=O)C(C)C)n3n2)c1 [Example 103, N^2-[2-(3-methoxyphenyl)[1,2,4]triazolo[1,5-c]quinazolin-5-yl]-D-valinamide]	4.43e-09	0.345
COC(=O)[C@H](Nc1nc2ccccc2c2nc(-c3cccc(OC)c3)nn12)C(C)C [Example 104, methyl N-[2-(3-methoxyphenyl)[1,2,4]triazolo[1,5-c]quinazolin-5-yl]-D-valinate]	1.12e-08	2.43
COc1cccc(-c2nc3c4ccccc4nc(N[C@H](C)C(=O)NC(C)C)n3n2)c1 [Example 105, N^2-[2-(3-methoxyphenyl)[1,2,4]triazolo[1,5-c]quinazolin-5-yl]-N-propan-2-yl-D-alaninamide]	8.86e-09	7.35
COc1cccc(-c2nc3c4ccccc4nc(N[C@H](C)C(=O)NC4CC4)n3n2)c1 [Example 106, N-cyclopropyl-N^2-[2-(3-methoxyphenyl)[1,2,4]triazolo[1,5-c]quinazolin-5-yl]-D-alaninamide]	7.97e-09	4.91
CCNC(=O)[C@@H](C)Nc1nc2ccccc2c2nc(-c3cccc(OC)c3)nn12 [Example 107, N-ethyl-N^2-[2-(3-methoxyphenyl)[1,2,4]triazolo[1,5-c]quinazolin-5-yl]-D-alaninamide]	1.06e-08	9.86
CNC(=O)[C@@H](C)Nc1nc2ccccc2c2nc(-c3cccc(OC)c3)nn12 [Example 108, N^2-[2-(3-methoxyphenyl)[1,2,4]triazolo[1,5-c]quinazolin-5-yl]-N-methyl-D-alaninamide]	5.75e-09	3.58
